Calls of active or inactive are those of the source. No cut-off for these calls is given here.
Columns and labels:
[1] = target: T1, Ubiquitin carboxyl-terminal hydrolase 28 (Homo sapiens) (UniProt Q96RU2); experiment: Inhibition of human USP28 (149 to 707 residues) expressed in Escherichia coli Rosetta 2 (DE3) cells using Ub-Rh110Gly as fluorogenic substrate at 40 uM preincubated for 1 hr followed by substrate addition by plate reader analysis
T1 sequence (whole entry): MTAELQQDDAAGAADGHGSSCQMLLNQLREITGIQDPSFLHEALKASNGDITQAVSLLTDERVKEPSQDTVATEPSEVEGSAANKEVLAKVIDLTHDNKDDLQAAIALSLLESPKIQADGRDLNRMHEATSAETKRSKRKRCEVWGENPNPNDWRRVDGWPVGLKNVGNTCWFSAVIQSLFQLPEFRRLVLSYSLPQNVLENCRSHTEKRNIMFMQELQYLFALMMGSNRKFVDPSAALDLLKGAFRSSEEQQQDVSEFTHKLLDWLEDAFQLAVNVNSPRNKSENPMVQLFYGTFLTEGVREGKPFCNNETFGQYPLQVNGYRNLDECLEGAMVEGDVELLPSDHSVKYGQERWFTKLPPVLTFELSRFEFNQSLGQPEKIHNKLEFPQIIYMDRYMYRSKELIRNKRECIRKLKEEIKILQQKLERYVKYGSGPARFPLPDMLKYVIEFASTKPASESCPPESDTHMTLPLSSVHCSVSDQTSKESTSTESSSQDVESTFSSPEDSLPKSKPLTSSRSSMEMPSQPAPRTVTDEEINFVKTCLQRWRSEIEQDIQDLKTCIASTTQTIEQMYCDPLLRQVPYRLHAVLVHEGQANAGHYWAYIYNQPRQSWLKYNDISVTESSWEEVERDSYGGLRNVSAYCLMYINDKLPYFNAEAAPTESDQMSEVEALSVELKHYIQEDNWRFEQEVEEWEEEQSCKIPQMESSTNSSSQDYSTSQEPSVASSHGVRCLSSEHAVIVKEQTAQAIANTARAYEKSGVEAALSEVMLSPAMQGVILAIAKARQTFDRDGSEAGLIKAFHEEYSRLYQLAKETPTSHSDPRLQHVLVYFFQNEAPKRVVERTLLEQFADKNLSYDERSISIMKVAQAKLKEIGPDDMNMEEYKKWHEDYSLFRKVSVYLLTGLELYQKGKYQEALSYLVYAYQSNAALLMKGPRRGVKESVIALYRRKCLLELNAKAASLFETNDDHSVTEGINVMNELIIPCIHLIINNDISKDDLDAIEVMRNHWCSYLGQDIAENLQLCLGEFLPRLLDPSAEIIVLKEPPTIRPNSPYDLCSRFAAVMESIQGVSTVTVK

Chlamydia trachomatis = experiment: Antimicrobial activity against Chlamydia trachomatis serovar L2 infected in human HeLa cells assessed as reduction in inclusion circumference at 3.13 ug/ml measured after 24 hrs of post-infection by microscopic analysis (reference value: 31.72 micrometer); format: functional; settings: dose 3.13 µg/ml
[2] = target: Ubiquitin carboxyl-terminal hydrolase 7 (Homo sapiens) (UniProt Q93009); experiment: Inhibition of 6His-tagged human USP7 using Ub-Rh110Gly as fluorogenic substrate at 40 uM preincubated for 1 hr followed by substrate addition by plate reader analysis
Chain of Ubiquitin carboxyl-terminal hydrolase 7 (Homo sapiens) (Q93009 whole entry, looked up): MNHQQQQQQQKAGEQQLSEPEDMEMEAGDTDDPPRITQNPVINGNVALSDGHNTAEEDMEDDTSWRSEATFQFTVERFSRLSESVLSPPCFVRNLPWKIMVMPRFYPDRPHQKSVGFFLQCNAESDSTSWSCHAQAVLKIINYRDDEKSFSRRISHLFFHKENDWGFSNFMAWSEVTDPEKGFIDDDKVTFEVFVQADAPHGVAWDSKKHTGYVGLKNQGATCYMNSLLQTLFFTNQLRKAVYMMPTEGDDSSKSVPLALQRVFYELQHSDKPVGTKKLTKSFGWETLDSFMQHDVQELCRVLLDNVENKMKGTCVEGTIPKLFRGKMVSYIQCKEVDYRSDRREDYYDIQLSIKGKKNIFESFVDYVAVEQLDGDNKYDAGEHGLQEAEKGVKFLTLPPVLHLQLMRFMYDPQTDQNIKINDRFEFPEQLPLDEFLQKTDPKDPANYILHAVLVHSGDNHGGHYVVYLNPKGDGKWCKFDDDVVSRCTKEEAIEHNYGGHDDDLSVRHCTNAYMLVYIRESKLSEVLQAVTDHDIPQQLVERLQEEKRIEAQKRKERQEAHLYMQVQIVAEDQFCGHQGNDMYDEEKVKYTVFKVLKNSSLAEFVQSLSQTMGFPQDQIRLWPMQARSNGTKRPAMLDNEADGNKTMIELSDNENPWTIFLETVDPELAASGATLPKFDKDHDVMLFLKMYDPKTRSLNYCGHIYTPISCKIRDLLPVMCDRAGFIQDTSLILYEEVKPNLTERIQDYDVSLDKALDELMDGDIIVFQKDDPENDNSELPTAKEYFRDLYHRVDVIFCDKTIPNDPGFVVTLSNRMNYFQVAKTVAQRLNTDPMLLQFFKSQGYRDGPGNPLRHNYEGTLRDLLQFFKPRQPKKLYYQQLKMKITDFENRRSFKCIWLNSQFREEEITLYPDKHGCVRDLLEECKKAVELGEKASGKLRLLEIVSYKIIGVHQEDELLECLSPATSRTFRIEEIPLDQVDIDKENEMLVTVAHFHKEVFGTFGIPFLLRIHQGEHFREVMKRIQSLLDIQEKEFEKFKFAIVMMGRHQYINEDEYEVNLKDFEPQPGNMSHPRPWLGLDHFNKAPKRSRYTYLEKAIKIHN

## N#Cc1ncc(C(=O)NCc2ccc(C(=O)NC34CC5CC(CC(C5)C3)C4)cc2)cn1
[1]
  inhibition: inactive
Chlamydia trachomatis
  Activity: 27.26 um
[2]
  inhibition: inactive

— ChEMBL document CHEMBL5576083, “Structure-Based Design and Synthesis of Covalent Inhibitors for Deubiquitinase and Acetyltransferase ChlaDUB1 of Chlamydia trachomatis” (J Med Chem, 2024)
